Experimental findings from patent US20260022142A1, “MACROCYCLIC IMMUNOMODULATORS” (Bristol-Myers Squibb Company, priority 2022, published 2026) are described below.

Numbered stars: 1 amine (or outer) side, 2 acyl side, 3 side chain; on linkers, the order of the positions; unused ones are H or OH. Bridge positions count the residues as written; N and C are the ends. Square brackets hold non-standard residues; d marks the D form. Peptide text beside a SMILES is read from it. * marks the point of attachment. ξ: configuration not given here. Phe(4-COOH) = N[C@@H](Cc1ccc(C(=O)O)cc1)C(=O)O; Bip = N[C@@H](Cc1ccc(-c2ccccc2)cc1)C(=O)O; Phe(4-NH2) = Nc1ccc(C[C@H](N)C(=O)O)cc1; Phe(3-F) = N[C@@H](Cc1cccc(F)c1)C(=O)O; Phe(3-Me) = Cc1cccc(C[C@H](N)C(=O)O)c1; γGlu = O=C(O)[C@H](CCC(=O)[*:2])N[*:1]; 4Pal = N[C@@H](Cc1ccncc1)C(=O)O; Cha = N[C@@H](CC1CCCCC1)C(=O)O; Cit = NC(=O)NCCC[C@H](N)C(=O)O; Thr(3ξ) = CC(O)[C@H](N)C(=O)O; Carboxymethyl = O=C(O)C*; Orn = NCCC[C@H](N)C(=O)O; Pra = C#CC[C@H](N)C(=O)O; Aun = NCCCCCCCCCCC(=O)O; Dab = NCC[C@H](N)C(=O)O; Dap = NC[C@H](N)C(=O)O; AEEA = NCCOCCOCC(=O)O

T1 sequence (Q15116 25-288): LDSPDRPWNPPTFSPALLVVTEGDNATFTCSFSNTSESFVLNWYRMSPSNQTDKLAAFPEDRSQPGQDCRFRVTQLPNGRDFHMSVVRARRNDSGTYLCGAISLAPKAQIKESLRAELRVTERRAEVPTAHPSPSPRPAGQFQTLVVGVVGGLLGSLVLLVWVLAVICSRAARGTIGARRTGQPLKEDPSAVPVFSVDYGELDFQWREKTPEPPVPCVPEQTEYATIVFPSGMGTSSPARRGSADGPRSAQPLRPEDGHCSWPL

The assay concerns the target T1, PD-1/PD-L1 interaction (PE-labeled human PD-L1-Ig binding to Jurkat cell line over-expressing human PD-1) (Homo sapiens, UniProt Q15116).
T1 construct: expressed in transfected cells; host or cells: Jurkat
The experiment in a line: Jurkat-PD-1 Cell Binding High-Content Screening Assay (CBA). The format is cell-based. Conditions: Jurkat cell line over-expressing human PD-1; PE-labeled PD-L1-Ig 20 nM final; read-out: Jurkat hPD1-PDL1 IC50. A digest of the protocol:
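Human PD-L1-Ig carrying a covalent PE label on its Ig tag serves as the probe, applied at 20 nM final to compound-treated (2 h, 37° C) Jurkat-hPD-1 cells in medium with 10% fetal calf serum. After one hour, fixation and nuclear staining precede high-content image analysis.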
A word on the IC50: it is the midpoint of a concentration-inhibition curve. For the compound `Cc1cccc(C[C@@H]2NC(=O)[C@H](CC(=O)O)NC(=O)[C@H](Cc3ccc(OCC(=O)O)cc3)NC(=O)[C@H](CN)NC(=O)CSC[C@@H](C(=O)N[C@@H](CCN)C(=O)NCCOCCOCC(=O)NCCCCCCCCCCC(=O)O)NC(=O)[C@H](CCC(=O)O)NC(=O)[C@H](C(C)C)NC(=O)[C@H](Cc3cccc(F)c3)NC(=O)[C@H](CCN)NC(=O)[C@@H](CC(C)C)NC(=O)[C@H](CCCN)NC(=O)[C@H](Cc3ccc(OCC(=O)O)cc3)NC(=O)[C@H](Cc3ccc(-c4ccccc4)cc3)NC(=O)[C@H](Cc3ccc(C(=O)O)cc3)NC2=O)c1` [Compound 1268] ({CH2CO}-[Dap]Y(Carboxymethyl)D[Phe(3-Me)][Phe(4-COOH)][Bip]Y(Carboxymethyl)[Orn][dL][Dab][Phe(3-F)]VEC[Dab][AEEA][Aun]-OH; thioether N-14), the IC50 amounted to 13.2 nM. The result for `CC(=O)Nc1ccc(C[C@@H]2NC(=O)[C@H](Cc3cccc(C)c3)NC(=O)[C@H](CC(=O)O)NC(=O)[C@H](Cc3ccc(OCC(=O)O)cc3)NC(=O)[C@H](CN)NC(=O)CSC[C@@H](C(=O)N[C@@H](CCN)C(=O)NCCCCCCCCCCC(=O)O)NC(=O)[C@H](C(C)O)NC(=O)[C@H](C(C)C)NC(=O)[C@H](CC3CCCCC3)NC(=O)[C@H](CCN)NC(=O)[C@@H](CC(C)C)NC(=O)[C@H](CCCN)NC(=O)[C@H](Cc3ccc(NC(C)=O)cc3)NC(=O)[C@H](Cc3ccc(-c4ccccc4)cc3)NC2=O)cc1` (stereo partly drawn) [Compound 3601] ({CH2CO}-[Dap]Y(Carboxymethyl)D[Phe(3-Me)][Phe(4-NH2)](Ac)[Bip][Phe(4-NH2)](Ac)[Orn][dL][Dab][Cha]V[Thr(3ξ)]C[Dab][Aun]-OH; thioether N-14) reads 38 nM. The result for `CC(C)C[C@H]1NC(=O)[C@H](CCCN)NC(=O)[C@H](C(C)C)NC(=O)[C@H](Cc2ccc(-c3ccccc3)cc2)NC(=O)[C@H](C(C)C)NC(=O)[C@H](Cc2c[nH]c3ccccc23)NC(=O)[C@H](CC(=O)O)NC(=O)[C@H](Cc2ccc(OCC(=O)O)cc2)NC(=O)[C@H](CCCNC(=N)N)NC(=O)CSC[C@@H](C(=O)NCC(=O)NCCOCCOCC(=O)N[C@@H](CCCN)C(=O)NCCCCCCCCCCC(=O)O)NC(=O)[C@H](CO)NC(=O)[C@H](C(C)C)NC(=O)[C@H](CC2CCCCC2)NC(=O)[C@H](CCN)NC1=O` [Compound 3230] ({CH2CO}-RY(Carboxymethyl)DWV[Bip]V[Orn][dL][Dab][Cha]VSCG[AEEA][Orn][Aun]-OH; thioether N-14) reads 8.9 nM; that for `Cc1cccc(C[C@@H]2NC(=O)[C@H](CC(=O)O)NC(=O)[C@H](Cc3ccc(OCC(=O)O)cc3)NC(=O)[C@H](CN)NC(=O)CSC[C@@H](C(=O)N[C@@H](CCC(=O)NCCCCCCCCCCC(=O)O)C(=O)O)NC(=O)[C@H]([C@@H](C)O)NC(=O)[C@H](C(C)C)NC(=O)[C@H](CC3CCCCC3)NC(=O)[C@H](CCN)NC(=O)[C@@H](CC(C)C)NC(=O)[C@H](CCCN)NC(=O)[C@H](CCCNC(N)=O)NC(=O)[C@H](Cc3ccc(-c4ccccc4)cc3)NC(=O)[C@H](C(C)C)NC2=O)c1` [Compound 1024] ({CH2CO}-[Dap]Y(Carboxymethyl)D[Phe(3-Me)]V[Bip][Cit][Orn][dL][Dab][Cha]VTC[γGlu][Aun]-OH; thioether N-14), 6.6 nM. For the compound `C#CC[C@H](NC(=O)COCCOCCNC(=O)[C@H](CCN)NC(=O)[C@@H]1CSCC(=O)N[C@@H](Cc2ccncc2)C(=O)N[C@@H](Cc2ccc(OCC(=O)O)cc2)C(=O)N[C@@H](CC(=O)O)C(=O)N[C@@H](Cc2c[nH]c3ccccc23)C(=O)N[C@@H](C(C)C)C(=O)N[C@@H](Cc2ccc(-c3ccccc3)cc2)C(=O)N[C@@H]([C@@H](C)CC)C(=O)N[C@@H](CCCN)C(=O)N[C@H](CC(C)C)C(=O)N[C@@H](CCN)C(=O)N[C@@H](CC(C)C)C(=O)N[C@@H](C(C)C)C(=O)N[C@@H]([C@@H](C)O)C(=O)N1)C(=O)N[C@@H](CCN)C(=O)NCCCCCCCCCCC(=O)O` [Compound 1194] ({CH2CO}-[4Pal]Y(Carboxymethyl)DWV[Bip]I[Orn][dL][Dab]LVTC[Dab][AEEA][Pra][Dab][Aun]-OH; thioether N-14), the IC50 amounted to 14.8 nM.
